Data: EPA's ToxRefDB 2

How the values were obtained:
rabbit [1] = conditions: Prenatal developmental toxicity study, new zealand white, Oral, Gavage/Intubation, dose end: 28 GD
mouse [2] = conditions: Carcinogenicity, other, Oral, Feed, dose end: 78 week, group: systemic
rat [3] = conditions: Multigenerational reproductive toxicity study, wistar, Oral, Feed, dose end: 2 generation
dog [4] = conditions: Chronic toxicity, beagle, Oral, Feed, dose end: 364 day, group: systemic
dog [5] = conditions: Subchronic oral toxicity in nonrodent, beagle, Feed, dose end: 90 day, group: systemic
mouse [6] = conditions: Subchronic oral toxicity in rodents, other, Feed, dose end: 91 day, group: systemic
rat [7] = conditions: Subchronic oral toxicity in rodents, wistar, Feed, dose end: 13 week, group: systemic
rabbit [8] = conditions: Prenatal developmental toxicity study, himalayan, Oral, Gavage/Intubation, dose end: 28 GD
rat [9] = conditions: Chronic toxicity; wistar; Oral; Feed; dose end: 364 day; group: systemic; systemic / pathology gross / eye / opacity + systemic / pathology microscopic / eye / corneal pannus + systemic / pathology microscopic / …
rat [10] = conditions: Carcinogenicity, wistar, Oral, Feed, dose end: 24 month, group: systemic
rat [11] = conditions: Prenatal developmental toxicity study, wistar, Oral, Gavage/Intubation, dose end: 19 GD
[12] = group: developmental, developmental / developmental malformation / bone / ossification sites + developmental / developmental malformation / bone / supernumerary
[13] = group: developmental, developmental / developmental malformation / bone / ossification sites + developmental / developmental malformation / bone / supernumerary…
[14] = group: maternal, systemic / clinical chemistry / tyrosine / tyrosine
[15] = systemic / in life observation / body weight / body weight + systemic / in life observation / body weight / body weight gain
[16] = systemic / in life observation / body weight / body weight + systemic / in life observation / body weight / body weight gain + systemic / …
[17] = group: offspring, systemic / organ weight / spleen / absolute + systemic / organ weight / spleen / relative to body weight
[18] = group: parental, systemic / organ weight / kidney / absolute + systemic / organ weight / kidney / relative to body weight + systemic / organ weight / liver…
[19] = group: parental, systemic / organ weight / thyroid gland / absolute
[20] = systemic / in life observation / food consumption / food efficiency + systemic / urinalysis / ketones / ketones + systemic / urinalysis / ph…
[21] = systemic / in life observation / body weight / body weight gain + systemic / in life observation / food consumption / food efficiency + …
[22] = systemic / urinalysis / ketones / ketones
[23] = systemic / in life observation / food consumption / food consumption + systemic / organ weight / testes / absolute + systemic / organ weight…
[24] = systemic / pathology gross / thyroid gland / altered colloid
[25] = group: developmental, developmental / developmental malformation / bone / [other] + developmental / developmental malformation / bone / incomplete ossification + …
[26] = group: maternal, reproductive / reproductive performance / aborted / aborted + systemic / in life observation / body weight / body weight gain + systemic / …
[27] = systemic / in life observation / mortality / mortality + systemic / pathology gross / lymph node / enlarged + systemic / pathology gross / …
[28] = group: developmental, developmental / developmental malformation / bone / full supernumerary + developmental / developmental malformation / bone / misshapen + …
[29] = group: maternal, systemic / in life observation / body weight / body weight gain

`Cc1c(C(=O)c2c[nH]n(C)c2=O)ccc(S(C)(=O)=O)c1C1=NOCC1` [Topramezone] was tested, and the LEL (rabbit [1]; [12]) was 5 mg/kg/day, the LOAEL (rabbit [1]; [12]) was 5 mg/kg/day and the NEL (rabbit [1]; [13]) was 0.5 mg/kg/day. For the same molecule, the NOAEL (rabbit [1]; [13]) was 0.5 mg/kg/day, the LEL (rabbit [1]; [14]) was 0.5 mg/kg/day and the LOAEL (rabbit [1]; [14]) was 0.5 mg/kg/day. The NEL (rabbit [1]; [14]) was < 0.5 mg/kg/day, the NOAEL (rabbit [1]; [14]) was < 0.5 mg/kg/day and the LOAEL (mouse [2]; [15]) was 19 mg/kg/day. The NOAEL (mouse [2]; [15]) was < 19 mg/kg/day, the LEL (mouse [2]; [16]) was 19 mg/kg/day and the NEL (mouse [2]; [16]) was < 19 mg/kg/day. It also gave an NOAEL (rat [3]; group: offspring, developmental / developmental landmark / preputial separation / preputial separation + developmental / offspring survival late / viability …) of 0.4 mg/kg/day, an LOAEL (rat [3]; group: offspring, developmental / developmental landmark / preputial separation / preputial separation + systemic / in life observation / body weight / litter…) of 4.2 mg/kg/day and an LEL (rat [3]; [17]) of 0.4 mg/kg/day. The NEL (rat [3]; [17]) was < 0.4 mg/kg/day, the LOAEL (rat [3]; [18]) was 4.2 mg/kg/day and the NOAEL (rat [3]; [18]) was 0.4 mg/kg/day. The LEL (rat [3]; [19]) was 0.5 mg/kg/day, the NEL (rat [3]; [19]) was < 0.5 mg/kg/day and the LEL (dog [4]; [20]) was 2.9 mg/kg/day. For the same molecule, the NEL (dog [4]; [20]) was < 2.9 mg/kg/day, the LOAEL (dog [4]; systemic / pathology microscopic / thyroid gland / hyperplasia) was 15.3 mg/kg/day and the NOAEL (dog [4]; systemic / pathology microscopic / thyroid gland / hyperplasia + systemic / in life observation / body weight / body weight + systemic / in …) was 2.9 mg/kg/day. For the same molecule, the LOAEL (dog [5]; [21]) was 1510 mg/kg/day, the NOAEL (dog [5]; [21]) was 535 mg/kg/day and the LEL (dog [5]; [22]) was 182 mg/kg/day. The NEL (dog [5]; [22]) was < 182 mg/kg/day, the LOAEL (mouse [6]; [23]) was > 2290 mg/kg/day and the NOAEL (mouse [6]; [23]) was ≥ 2290 mg/kg/day. The LEL (mouse [6]; systemic / organ weight / liver / relative to body weight) was 406 mg/kg/day, the NEL (mouse [6]; systemic / organ weight / liver / relative to body weight + systemic / in life observation / body weight / body weight gain + systemic / in …) was 51 mg/kg/day and the LEL (rat [7]; [24]) was 1.1 mg/kg/day. For the same molecule, the NEL (rat [7]; [24]) was < 1.1 mg/kg/day, the LOAEL (rat [7]; systemic / pathology microscopic / pancreas / degeneration) was 2.1 mg/kg/day and the NOAEL (rat [7]; systemic / pathology microscopic / pancreas / degeneration + systemic / clinical chemistry / alkaline phosphatase (alp/alk) / alkaline …) was 1.1 mg/kg/day. The LEL (rabbit [8]; [25]) was 50 mg/kg/day, the LOAEL (rabbit [8]; [25]) was 50 mg/kg/day and the NEL (rabbit [8]; [25]) was < 50 mg/kg/day. For the same molecule, the NOAEL (rabbit [8]; [25]) was < 50 mg/kg/day, the LEL (rabbit [8]; [26]) was 450 mg/kg/day and the LOAEL (rabbit [8]; [26]) was 450 mg/kg/day. The NEL (rabbit [8]; [26]) was 150 mg/kg/day, the NOAEL (rabbit [8]; [26]) was 150 mg/kg/day and the LEL (rat [9]) was 3.9 mg/kg/day. It also gave an LOAEL (rat [9]) of 3.9 mg/kg/day, an NEL (rat [9]) of 0.4 mg/kg/day and an NOAEL (rat [9]) of 0.4 mg/kg/day. The LEL (rat [10]; [27]) was 0.4 mg/kg/day, the NEL (rat [10]; [27]) was < 0.4 mg/kg/day and the NOAEL (rat [10]; [27]) was 0.4 mg/kg/day. For the same molecule, the LOAEL (rat [10]; systemic / pathology microscopic / thyroid gland / hyperplasia + systemic / pathology microscopic / thyroid gland / hypertrophy + systemic…) was 3.6 mg/kg/day, the LEL (rat [11]; [28]) was 100 mg/kg/day and the LOAEL (rat [11]; [28]) was 100 mg/kg/day. The NEL (rat [11]; [28]) was < 100 mg/kg/day, the NOAEL (rat [11]; [28]) was < 100 mg/kg/day and the LEL (rat [11]; [29]) was 100 mg/kg/day. The LOAEL (rat [11]; [29]) was 100 mg/kg/day, the NEL (rat [11]; [29]) was < 100 mg/kg/day and the NOAEL (rat [11]; [29]) was < 100 mg/kg/day.
